{"source": "patent US20230114107A1", "about": "“COMBINATION ANTI-CANCER THERAPIES WITH INDUCERS OF IRON-DEPENDENT CELLULAR DISASSEMBLY” (Flagship Pioneering Innovations V, Inc., priority 2019, published 2023)", "key": {"[1]": {"test_system": "HT1080 fibrosarcoma cells", "assay": "Viability of HT1080 fibrosarcoma cells after 24 h treatment", "type": "cell-based", "conditions": "various doses"}, "[2]": {"test_system": "NFKB reporter in THP1-Dual cells", "assay": "NFKB reporter activity in THP1-Dual monocytes co-cultured with treated HT1080 cells", "type": "cell-based, human", "method": "HT1080 fibrosarcoma cells were treated with either control (DMSO) or various doses of Erastin, piperazine erastin (PE), or imidazole ketoerastin (IKE) for 24 hours prior to co-culture with THP1-Dual cells for an additional 24 hours. Erastin was purchased from Selleckchem (Houston, Tex.) and dissolved in DMSO. Subsequently, the THP1 supernatants were assessed for nuclear factor kappa-light-chain-enhancer of activated B cells (NFKB) or interferon regulatory factor (IRF) reporter activity.\nHT1080 cells were acquired from ATCC and THP1-Dual cells were acquired from InvivoGen (San Diego, Calif.). THP1-Dual cells are human monocyte cells that induce reporter proteins upon activation of either NFKB or IRF pathways. Both cell types were cultured in 96-well plates for the duration of the assay. HT1080 cells were cultured in DMEM with 10% FBS, and THP1-Dual cells were cultured in RPMI with 10% FBS. 7,500 HT1080 cells were plated 24 hours prior to dosing with Erastin, PE, or IKE, with a final DMSO concentration of 0.5%. 24 hours post-treatment, THP1-Dual cells (25,000 cells/well) were added to the HT1080 cells. 24 hours later, 30 μl of supernatant was mixed with either 200 μl QuantiBlue (InvivoGen, San Diego, Calif.) (for NFKB reporter activity) or 50 μl QuantiLuc (for IRF reporter activity) and absorbance or luminescence was recorded on a Molecular Devices plate reader.\nHT1080 fibrosarcoma cells were treated with various doses of Erastin (e.g. […], 0.16, 0.31, 0.63, 1.25, 2.5, 5, 10 or 20 μM) alone or in combination with a ferroptosis inhibitor (1 μM Ferrostatin-1, 1 μM Liproxstatin-1, 100 μM Trolox, 25 μM β-Mercaptoethanol or 100 μM Deferoxamine) for 24 hours prior to co-culture with THP1-Dual cells for an additional 24 hours. Ferrostatin-1 and Liproxstatin-1 were purchased from Selleckchem (Houston, Tex.) and dissolved in DMSO. Trolox was purchased from Cayman Chemical Company Inc and resuspended in DMSO. […] Subsequently, the THP1 supernatant was assessed for NFKB activity. […]\nHT1080 fibrosarcoma cells were treated with various doses of Erastin (ferroptosis inducer), docetaxel (apoptosis inducer) or H2O2 (necrosis inducer) for 24 hours prior to co-culture with THP1-Dual cells for an additional 24 hours. […] Subsequently, the THP1 supernatants were assessed for nuclear factor kappa-light-chain-enhancer of activated B cells (NFKB).\nHT1080 cells were acquired from ATCC and THP1-Dual cells were acquired from InvivoGen (San Diego, Calif.). […] 24 hours later, 30 μl of supernatant was mixed with either 200 μl QuantiBlue (InvivoGen, San Diego, Calif.) (for NFKB reporter activity) or 50 μl QuantiLuc (for IRF reporter activity) and absorbance or luminescence was recorded on a Molecular Devices plate reader."}, "[3]": {"test_system": "NFKB reporter in THP1-Dual cells", "assay": "NFKB reporter activity in THP1-Dual monocytes co-cultured with treated Caki-1 cells", "type": "cell-based, human", "method": "Caki-1 renal cell carcinoma cells were treated with either control (DMSO) or various doses of Erastin, for 24 hours prior to co-culture with THP1-Dual cells for an additional 24 hours. Erastin was purchased from Selleckchem (Houston, Tex.) and dissolved in DMSO. Subsequently, the THP1 supernatants were assessed for NFKB or IRF reporter activity. Caki-1 cells were acquired from ATCC and THP1-Dual cells acquired from InvivoGen (San Diego, Calif.). Both cell types were cultured in 96-well plates for the duration of the assay. 7,500 Caki-1 cells were plated 24 hours prior to dosing with Erastin, with a final DMSO concentration of 0.5%. 24 hours post-treatment, THP1-Dual cells (25,000 cells/well) were added to the Caki-1 cells. 24 hours later, 30 μl of supernatant was mixed with either 200 μl QuantiBlue (InvivoGen) or 50 μl QuantiLuc and absorbance or luminescence was recorded on a Molecular Devices plate reader. Caki-1 renal cell carcinoma cells were treated with either control (DMSO) or various doses of RSL3, for 24 hours prior to co-culture with THP1-Dual cells for an additional 24 hours. RSL3 was purchased from Selleckchem and dissolved in DMSO. Subsequently, the THP1 supernatants were assessed for NFKB or IRF reporter activity. Caki-1 cells were acquired from ATCC and THP1-Dual cells acquired from InvivoGen (San Diego, Calif.). Both cell types were cultured in 96-well plates for the duration of the assay. 7,500 Caki-1 cells were plated 24 hours prior to dosing with RSL3, with a final DMSO concentration of 0.5%. 24 hours post-treatment, THP1-Dual cells (25,000 cells/well) were added to the Caki-1 cells. 24 hours later, 30 μl of supernatant was mixed with either 200 μl QuantiBlue (InvivoGen, San Diego, Calif.) or 50 μl QuantiLuc and absorbance or luminescence was recorded on a Molecular Devices plate reader. […] Subsequently, the THP1 supernatant was assessed for NFKB reporter activity. Caki-1 cells were acquired from ATCC and THP1-Dual cells acquired from InvivoGen (San Diego, Calif.). Both cell types were cultured in 96-well plates for the duration of the assay."}, "[4]": {"test_system": "Caki-1 renal cell carcinoma cells", "assay": "Viability of Caki-1 renal cell carcinoma cells after treatment", "type": "cell-based"}, "[5]": {"test_system": "NFKB reporter in THP1-Dual cells", "assay": "NFKB reporter activity in THP1-Dual monocytes co-cultured with treated A20 cells", "type": "cell-based, human", "conditions": "for NFKB activity in THP1 cells, dose dependence: A20 lymphoma cells treated with GPX4 inhibitor, FIG. 10B, 11B, 12B", "method": "A20 B-cell leukemia cells were treated with either control (DMSO) or various doses of RSL3, for 24 hours prior to co-culture with THP1-Dual cells for an additional 24 hours. RSL3 was purchased from Selleckchem (Houston, Tex.) and dissolved in DMSO. Subsequently, the THP1 supernatants were assessed for NFKB or IRF reporter activity.\nA20 cells were acquired from ATCC and THP1-Dual cells acquired from InvivoGen (San Diego, Calif.). Both cell types were cultured in 96-well plates for the duration of the assay. 50,000 A20 cells were plated 24 hours prior to dosing with RSL3, with a final DMSO concentration of 0.5%. 24 hours post-treatment, THP1-Dual cells (25,000 cells/well) were added to the A20 cells. 24 hours later, 30 μl of supernatant was mixed with either 200 μl QuantiBlue (InvivoGen, San Diego, Calif.) or 50 μl QuantiLuc and absorbance or luminescence was recorded on a Molecular Devices plate reader.\nA20 lymphoma cells were treated with various doses (e.g. 0.002, 0.005, 0.014, 0.041, 0.123, 0.370, 1.111, 3.333 and 10 μM) of a GPX4 inhibitor (RSL3, ML162 or ML210) in the presence or absence of 1 μM Ferrostatin-1 for 24 hours. ML162 was purchased from Cayman Chemical Company Inc and resuspended in DMSO. ML210 was purchased from Sigma-Aldrich and resuspended in DMSO. A20 lymphoma cells were also treated with DMSO as a negative control. After treatment with DMSO or a GPX4 inhibitor for 24 hours, the A20 lymphoma cells were co-cultured with THP1-Dual cells for an additional 24 hours. Subsequently, the THP1 supernatant was assessed for NFKB reporter activity. A20 cells were acquired from ATCC and THP1-Dual cells were acquired from InvivoGen (San Diego, Calif.). Both cell types were cultured in 96-well plates for the duration of the assay."}, "[6]": {"test_system": "A20 B-cell leukemia cells", "assay": "Viability of A20 B-cell leukemia / lymphoma cells after treatment", "type": "cell-based", "conditions": "for viability of A20 lymphoma cells, dose dependence: GPX4 inhibitor 0.002-10 μM, 24 hours, FIG. 10A, 11A, 12A"}, "[7]": {"test_system": "NFkB reporter in THP1 monocytes", "assay": "Screen for innate immune activation: NFkB reporter in THP1 monocytes added to drug-treated HT-1080 cells", "type": "cell-based, human", "conditions": "final compound concentration of 10 PM; reporter read 48h after THP-1 addition; FIG. 17", "method": "Over 100 FDA-approved anticancer drugs and 6 inducers of ferroptosis were evaluated for their ability to induce innate immune activation, as measured by induction of an NFkB reporter in THP1 monocytes in vitro. The source of the approved anticancer drug compounds was plate Approved Oncology Drug (AOD) IX, available from the National Cancer Institute, Division of Cancer Treatment and Diagnosis (dtp.cancer.gov/organization/dscb/obtaining/available_plates.htm). Briefly, 20,000-30,000 HT-1080 cells were plated per well in 96 well plates, and 10 μl each of compounds from the AOD IX plates were added to each well, for a final compound concentration of 10 PM. The six inducers of ferroptosis listed above were also included in the experiment, as a comparison. After addition of the drug, cells were incubated overnight, and 50,000 THP-1 reporter cells were added to each well on the following day. Reporter induction was measured by colorimetry 48h after reporter cell addition."}, "[8]": {"conditions": "ferroptosis, apoptosis, necrosis inducers compared, FIG. 15A"}, "[9]": {"conditions": "HT1080 cells treated with ferroptosis, apoptosis or necrosis inducer, FIG. 15B"}, "[10]": {"conditions": "HT1080 cells treated 24 hours, co-culture 24 hours, vs DMSO, FIG. 1B, 1D"}}}
{"smiles": "OO", "note": "[Example H2O2, H2O2]", "values": [{"measurement": "viability of HT1080 cells", "setting": "[1]; [8]", "result": "negatively affected the viability"}, {"measurement": "NFKB signaling in THP1 monocytes", "setting": "[2]; [9]", "result": "did not have this same effect"}]}
{"smiles": "CCOC(=O)c1ccc(NC2CCCCC2)c(N)c1", "note": "[Ferrostatin-1]", "values": [{"measurement": "effect on GPX4 inhibitor-increased NFKB activity in THP1 cells", "setting": "[3]; Caki-1 cells, 1 μM Ferrostatin with RSL3 or ML162", "result": "attenuated"}, {"measurement": "effect on GPX4 inhibitor-decreased viability of Caki-1 renal carcinoma cells", "setting": "[4]; 1 μM Ferrostatin with RSL3 or ML162, 24 hours", "result": "attenuated"}, {"measurement": "effect on GPX4 inhibitor-increased NFKB activity in THP1 cells", "setting": "[5]; A20 cells, 1 μM Ferrostatin-1 with RSL3, ML162 or ML210", "result": "attenuated"}, {"measurement": "effect on GPX4 inhibitor-decreased viability of A20 lymphoma cells", "setting": "[6]; 1 μM Ferrostatin-1 with RSL3, ML162 or ML210, 24 hours", "result": "attenuated"}]}
{"smiles": "COc1ccc(N(C(=O)CCl)C(C(=O)NCCc2ccccc2)c2cccs2)cc1Cl", "note": "(centres unmarked) [ML162]", "values": [{"measurement": "NFKB activity in THP1 cells, dose dependence", "setting": "[3]; Caki-1 cells treated with RSL3 or ML162, FIG. 13B, 14B", "result": "increased NFKB activity in THP1 cells in a dose dependent manner"}, {"measurement": "viability of Caki-1 renal carcinoma cells, dose dependence", "setting": "[4]; GPX4 inhibitor various doses, 24 hours, FIG. 13A, 14A", "result": "decreased viability of the cells in a dose dependent manner"}, {"measurement": "NFKB activity in THP1 cells, dose dependence", "setting": "[5]", "result": "increased NFKB activity in THP1 cells in a dose dependent manner"}, {"measurement": "viability of A20 lymphoma cells, dose dependence", "setting": "[6]", "result": "decreased viability of the cells in a dose dependent manner"}]}
{"smiles": "Cc1onc(C(=O)N2CCN(C(c3ccc(Cl)cc3)c3ccc(Cl)cc3)CC2)c1[N+](=O)[O-]", "note": "[ML210]", "values": [{"measurement": "NFKB activity in THP1 cells, dose dependence", "setting": "[5]", "result": "increased NFKB activity in THP1 cells in a dose dependent manner"}, {"measurement": "viability of A20 lymphoma cells, dose dependence", "setting": "[6]", "result": "decreased viability of the cells in a dose dependent manner"}]}
{"smiles": "CC(C)Oc1ccc(C(=O)Cn2ccnc2)cc1-n1c(CN2CCN(C(=O)COc3ccc(Cl)cc3)CC2)nc2ccccc2c1=O", "note": "[IKE, imidazole ketoerastin]", "values": [{"measurement": "viability of HT1080 cells", "setting": "[1]; FIG. 1A, 1C", "result": "negatively affected the viability"}, {"measurement": "increase in NFkB activity relative to the baseline", "setting": "[7]", "result": 2.4, "unit": "fold"}, {"measurement": "NFKB signaling in THP1 monocytes", "setting": "[2]; [10]", "result": "elicited NFKB signaling in THP1 monocytes"}]}
{"smiles": "CC(=O)O[C@@]12CO[C@@H]1C[C@H](O)[C@@]1(C)C(=O)[C@H](O)C3=C(C)[C@@H](OC(=O)[C@H](O)[C@@H](NC(=O)OC(C)(C)C)c4ccccc4)C[C@@](O)([C@@H](OC(=O)c4ccccc4)[C@H]21)C3(C)C", "note": "[docetaxel, Docetaxel]", "values": [{"measurement": "viability of HT1080 cells", "setting": "[1]; [8]", "result": "negatively affected the viability"}, {"measurement": "NFKB signaling in THP1 monocytes", "setting": "[2]; [9]", "result": "did not have this same effect"}]}
{"smiles": "CC(C)Oc1ccc(CN2CCNCC2)cc1-n1c(CN2CCN(C(=O)COc3ccc(Cl)cc3)CC2)nc2ccccc2c1=O", "note": "[PE, piperazine erastin]", "values": [{"measurement": "viability of HT1080 cells", "setting": "[1]; FIG. 1A, 1C", "result": "negatively affected the viability"}, {"measurement": "NFKB signaling in THP1 monocytes", "setting": "[2]; [10]", "result": "elicited NFKB signaling in THP1 monocytes"}]}
{"smiles": "CCOc1ccccc1-n1c(C(C)N2CCN(C(=O)COc3ccc(Cl)cc3)CC2)nc2ccccc2c1=O", "note": "(centres unmarked) [Erastin]", "values": [{"measurement": "increase in NFkB activity relative to the baseline", "setting": "[7]", "result": 3.2, "unit": "fold"}]}
